{"source": "patent US4328242A", "about": "“α-(3,4,5-Trimethoxyhenzoyl)thiopropionyl-glycine” (Ausoria Farmaceutici S.r.l., priority 1980, dated 1982)", "key": {"guinea pigs [1]": {"test_system": "guinea pigs", "test": "Protective activity in subacute bronchitis induced by inhalation of citric acid", "type": "in vivo", "conditions": "7.5% citric acid inhalation, oral route, equimolar doses"}, "[2]": {"test": "Stability in reducing medium (SO2)", "type": "physicochemical", "conditions": "25 mg/ml, sodium bisulfite calculated as SO2, refluxed three hours", "experimental": "In the presence of SO2 --solutions containing 25 mg/ml of TBPG and MPG respectively in the presence of sodium bisulfite calculated as SO2 are warmed and refluxed for a period of three hours."}, "rats [3]": {"test_system": "rats", "test": "Regenerative action in partial hepatectomy", "type": "in vivo", "conditions": "partial hepatectomy, equimolar doses"}, "[4]": {"type": "in vivo", "conditions": "rats, oral route, equimolar doses"}, "Stability to light": {"test": "Stability to light", "type": "physicochemical", "conditions": "powder form, light of a 60 watt lamp, three months"}, "rats [5]": {"test_system": "rats", "test": "Action on the period of sleep induced by barbiturates", "type": "in vivo", "conditions": "rats intoxicated with CCl4; equimolar doses", "experimental": "The activity of TBPG administered for two days in the dose of 200 and 400 mg/kg orally, has been determined on the basis of the reduction of the period of sleep induced by Nembutal on rats intoxicated with CCl4."}, "[6]": {"conditions": "solid state as a dry powder and in solution, even at low relative humidity and room temperature; cited from earlier work"}, "rats [7]": {"test_system": "rats", "test": "Protective activity of the liver in the intoxication caused by CCl4 (BSF elimination)", "type": "in vivo", "conditions": "rats intoxicated with CCl4; 90 and 180 mg/kg orally (equimolar)", "experimental": "The animals, that is rats, were intoxicated with CCl4 for a period of seven days. They were treated during the same days and for a subsequent period of seven days with TBPG in the dose of 200 and 400 mg/kg orally and with α-mercaptopropionylglycine in the dose of 90 and 180 mg/kg orally. On the fifteenth day, the rats have been treated with BSF in the amount of 10 mg/kg intravenously."}, "rats [8]": {"test_system": "rats", "test": "Bronchosecretolithic activity in rats (sodium fluorescine method)", "type": "in vivo", "conditions": "135 mg/kg intraperitoneally (equimolar)", "experimental": "The secretolithic activity of TBPG has been determined in comparison to α-mercaptopropionylglycine by administering 300 mg/kg of the substance intraperitonally and comparing with 135 mg/kg of α-mercaptopropionylglycine administered also intraperitoneally. The doses are equimolar. The method is based on the use of sodium fluorescine described by H. M. Mawatari (Experimental Studies on the Expectorant Action of Several Drugs, Kogoshima Daigakeu Igakeu Zasshi 27, 561, 1976)."}, "[9]": {"test": "Stability in solution (acidic, alkaline, oxidizing medium)", "type": "physicochemical", "conditions": "3% hydrogen peroxide, two months"}, "[10]": {"test": "Isothermic (accelerated) stability according to the method of Garret, TLC", "type": "physicochemical", "experimental": "The tests of accelerated stability have been carried out with the substance in powder form, that is in glass vials, hermetically closed with a plastic screw cap and also with the substance dissolved in water, that is 500 mg in 10 cc in a transparent glass container of 20 cc capacity closed with a plastic screw cap.\nThe production of impurities, if any, due to degradation of the substance, has been determined by means of TLC."}, "[11]": {"test": "Stability at room temperature", "type": "physicochemical", "conditions": "closed containers, 36 months", "description": "Five different samples of TBPG and α-mercaptopropionyl glycine have been preserved at room temperature in closed containers for a period of 36 months. At the end of the storage period, the following properties have been determined: […]"}, "rabbits": {"test_system": "rabbits", "test": "Secretory activity in rabbits (bronchial secretion)", "type": "in vivo", "conditions": "with respect to the control animals", "description": "This activity has been determined using the method described by E. M. Boyd and C. F. Boyd, modified by P. C. Braga, et al described in Bronchial Hypersecretion, 1973. This activity has been determined every hour for a period of four hours by measuring the amount of bronchial secretion derived from the laryngo-tracheal organs and from the tracheo-bronchial organs of rabbits."}, "rats [12]": {"test_system": "rats", "test": "Protective action on chronic bronchitis induced by inhalation of SO2", "type": "in vivo", "conditions": "SO2 aerosol, equimolar dosages", "experimental": "Bronchopulmonary lesions were induced in the animals by aerosolization of SO2. The animals were then treated for two weeks with TBPG in the dosage of 100 and 400 mg/kg by the oral route, rectal route and by inhalation."}, "guinea pigs [13]": {"test_system": "guinea pigs", "test": "Antibronchospastic activity, histamine aerosol", "type": "in vivo", "conditions": "equimolar doses", "description": "Histamine administered in the form of an aerosol has caused in guinea pigs symptoms of broncho-spasm accompanied by convulsions, irreversible collapse and death."}, "Stability to moisture": {"test": "Stability to moisture", "type": "physicochemical", "conditions": "open vials, 90% relative humidity, a month", "experimental": "Samples of TBPG and MPG have been maintained in open vials at room temperature under conditions of 90% relative humidity and at 50° C. always with 90% relative humidity. After a month of exposure, the following observations have been made."}, "[14]": {"conditions": "Powder, 60°, read-out: Chromatographic Impurities"}, "[15]": {"conditions": "Powder, 70°, read-out: Chromatographic Impurities"}, "[16]": {"conditions": "Powder, 80°, read-out: Chromatographic Impurities"}, "[17]": {"conditions": "Solution (500 mg in 10 cc water), 60°, read-out: Chromatographic Impurities"}, "[18]": {"conditions": "Solution (500 mg in 10 cc water), 70°, read-out: Chromatographic Impurities"}, "[19]": {"conditions": "Solution (500 mg in 10 cc water), 80°, read-out: Chromatographic Impurities"}}, "note": "Read-outs that look alike come from different tables or passages of the source.", "data": [{"smiles": "CC(S)C(=O)NCC(=O)O", "note": "(stereo not drawn) [α-mercaptopropionylglycine, 2-mercaptopropionylglycine]", "values": [{"measurement": "efficacy compared with TBPG", "setting": "guinea pigs [1]", "result": "essentially overlapping"}, {"measurement": "stability in reducing medium", "setting": "[2]", "result": "undergoes substantial physico-chemical and organoleptic change"}, {"measurement": "regeneration of the hepatic tissue, compared with TBPG", "setting": "rats [3]", "result": "comparable"}, {"measurement": "concentration in the kidney", "setting": "[4]", "result": "high concentrations in the kidney"}, {"measurement": "distribution in the organs", "setting": "[4]", "result": "sufficiently homogenous"}, {"measurement": "stability to light", "setting": "Stability to light", "result": "strong yellow color, due to degradation accompanied by an unpleasant odor and taste"}, {"measurement": "reduction of the period of sleep induced by Nembutal, compared with TBPG", "setting": "rats [5]", "result": "essentially comparable"}, {"measurement": "stability on storage", "setting": "[6]", "result": "low stability"}, {"measurement": "elimination of BSF, compared with TBPG", "setting": "rats [7]", "result": "comparable"}, {"measurement": "bronchosecretolithic activity", "setting": "rats [8]", "result": 15.2, "unit": "%"}, {"measurement": "stability in oxidizing medium", "setting": "[9]", "result": "the change is greater"}, {"measurement": "Chromatographic Impurities", "setting": "[10]; Powder, 60°, 320 hours", "result": "Traces"}, {"measurement": "degraded at 960 h", "setting": "[10]; [14]", "result": 1, "unit": "%"}, {"measurement": "degraded at 1280 h", "setting": "[10]; [14]", "result": 1, "unit": "%"}, {"measurement": "degraded at 1600 h", "setting": "[10]; [14]", "result": 2, "unit": "%"}, {"measurement": "Chromatographic Impurities", "setting": "[10]; Powder, 70°, 120 hours", "result": "Traces"}, {"measurement": "degraded at 240 h", "setting": "[10]; [15]", "result": 1, "unit": "%"}, {"measurement": "degraded at 480 h", "setting": "[10]; [15]", "result": 2, "unit": "%"}, {"measurement": "degraded at 45 h", "setting": "[10]; [16]", "result": 1, "unit": "%"}, {"measurement": "degraded at 90 h", "setting": "[10]; [16]", "result": 1, "unit": "%"}, {"measurement": "degraded at 180 h", "setting": "[10]; [16]", "result": 2, "unit": "%"}, {"measurement": "Chromatographic Impurities", "setting": "[10]; Solution (500 mg in 10 cc water), 60°, 0 hours", "result": "Absent"}, {"measurement": "degraded at 320 h", "setting": "[10]; Solution (500 mg in 10 cc water), 60°, 320 hours, read-out: Chromatographic Impurities", "result": 0.5, "unit": "%"}, {"measurement": "degraded at 640 h", "setting": "[10]; Solution (500 mg in 10 cc water), 60°, 640 hours, read-out: Chromatographic Impurities", "result": 0.6, "unit": "%"}, {"measurement": "degraded at 960 h", "setting": "[10]; [17]", "result": 1, "unit": "%"}, {"measurement": "degraded at 1280 h", "setting": "[10]; [17]", "result": 1.5, "unit": "%"}, {"measurement": "degraded at 1600 h", "setting": "[10]; [17]", "result": 2.5, "unit": "%"}, {"measurement": "degraded at 180 h", "setting": "[10]; [18]", "result": 1, "unit": "%"}, {"measurement": "degraded at 240 h", "setting": "[10]; [18]", "result": 2, "unit": "%"}, {"measurement": "degraded at 480 h", "setting": "[10]; [18]", "result": 2.5, "unit": "%"}, {"measurement": "degraded at 45 h", "setting": "[10]; [19]", "result": 1, "unit": "%"}, {"measurement": "degraded at 90 h", "setting": "[10]; [19]", "result": 2.5, "unit": "%"}, {"measurement": "degraded at 120 h", "setting": "[10]; Solution (500 mg in 10 cc water), 80°, 120 hours, read-out: Chromatographic Impurities", "result": 1.5, "unit": "%"}, {"measurement": "organoleptic properties (taste, odor)", "setting": "[11]", "result": "undergo substantial change"}, {"measurement": "laryngo-tracheal secretion", "setting": "rabbits", "result": "P 0.05 with respect to the control animals"}, {"measurement": "tracheo-bronchial secretion", "setting": "rabbits", "result": "n.s."}, {"measurement": "protection of the bronchi and lungs, compared with TBPG", "setting": "rats [12]", "result": "Analogous results"}, {"measurement": "antibronchospastic efficacy compared with TBPG", "setting": "guinea pigs [13]", "result": "efficacy comparable"}, {"measurement": "stability to moisture", "setting": "Stability to moisture; 50° C.", "result": "marked change in color, odor and taste accompanied by degradation products"}, {"measurement": "stability to moisture", "setting": "Stability to moisture; room temperature (t.a.)", "result": "significant change of organoleptic properties"}]}]}
